The values that follow come from publication PMC3708395, “Hepatoprotective and Antioxidant Effects of Saponarin, Isolated from Gypsophila trichotoma Wend. on Paracetamol-Induced Liver Damage in Rats” (BioMed Research International, 2013).

For data set [1], the system named is Male Wistar rats. The experiment in a line: Lipid peroxidation (MDA) in rat liver homogenate, in vivo paracetamol model. To be noted: for MDA: rat liver homogenate. On the procedure:
The animals were divided into six groups (n = 6). […] The animals in all groups were sacrificed on the eighth day of the beginning of the experiment. Livers were taken for assessment of biochemical parameters. For all following experiments the excised livers were washed out with cold saline solution (0.9% NaCl), blotted dray, weighed, and homogenized with appropriate buffers. Lipid peroxidation was determined by measuring the rate of production of thiobarbituric acid reactive substances (TBARS) (expressed as malondialdehyde (MDA) equivalents) described by Polizio and Peña with slight modifications. Briefly one volume of homogenate was mixed with 1 mL 25% trichloroacetic acid (TCA) and 1 mL 0.67% thiobarbituric acid (TBA). Samples were then mixed thoroughly, heated for 20 min in a boiling water bath, cooled and centrifuged at 4000 rpm for 20 min. The absorbance of supernatant was measured at 535 nm against a blank that contained all the reagents except the tissue homogenate. MDA concentration was calculated using a molar extinction coefficient of 1.56 × 10^5 M^−1 cm^−1 and expressed in nmol/g wet tissue.

The subject of a further data set is isolated rat hepatocytes. The experiment in a line: Paracetamol-induced model of toxicity in isolated rat hepatocytes. To be noted: 30 min preincubation with saponarin 60–0.006 μg/mL, then paracetamol 100 μmol for one hour; concentration-dependent.
Details of data set [2]: method as in earlier work. To be noted: concentration range 0.5 mg/mL; cited from earlier work.
The subject of data set [3] is Male Wistar rats. Nature of the data set: Antioxidant enzyme activities (SOD, CAT, GPx, GR, GST) in rat liver homogenate, in vivo paracetamol model. To be noted: for CAT / GPx / GR / GST / SOD: rat liver homogenate. An excerpt: The animals were divided into six groups (n = 6). […] The animals in all groups were sacrificed on the eighth day of the beginning of the experiment. Livers were taken for assessment of biochemical parameters. For all following experiments the excised livers were washed out with cold saline solution (0.9% NaCl), blotted dray, weighed, and homogenized with appropriate buffers. The livers were rinsed in ice-cold physiological saline and minced with scissors. […] Catalase (CAT) activity was determined by measuring the decrease in absorbance at 240 nm. […] SOD activity was expressed as nmol of epinephrine that are prevented from autoxidation after addition of the sample. […] The rate of disappearance of NADPH with time was determined by monitoring absorbance at 340 nm. Results are expressed in nmol/mg. Glutathione reductase activity (GR) was measured according to the method of Pinto et al. by following NADPH oxidation spectrophotometrically at 340 nm and using an extinction coefficient of 6.22 mM^−1 cm^−1. […] The enzyme activity is expressed as nmol of CDNB-GSH conjugate formed/min/mg protein.

In data set [4] the test system is Male Wistar rats. The experiment in a line: Histopathological study of liver. The data set is classed as in vivo, rat. An excerpt:
The animals were divided into six groups (n = 6). […] The animals in all groups were sacrificed on the eighth day of the beginning of the experiment. Livers were taken for assessment of biochemical parameters. For all following experiments the excised livers were washed out with cold saline solution (0.9% NaCl), blotted dray, weighed, and homogenized with appropriate buffers. For light microscopic evaluation, liver tissues were fixed in 10% buffered formalin and then thin sections (4 μm) were subsequently stained with hematoxylin/eosin for general histological features determination. Sections were studied under light microscope Leica DM 500.

In data set [5] the test system is Male Wistar rats. Nature of the data set: GSH level in rat liver homogenate, in vivo paracetamol model. To be noted: for GSH: rat liver homogenate. On the procedure: The animals were divided into six groups (n = 6). […] The animals in all groups were sacrificed on the eighth day of the beginning of the experiment. Livers were taken for assessment of biochemical parameters. For all following experiments the excised livers were washed out with cold saline solution (0.9% NaCl), blotted dray, weighed, and homogenized with appropriate buffers. GSH was assessed by measuring nonprotein sulfhydryls after precipitation of proteins with TCA, using the method described by Bump et al.. Briefly, tissues were homogenized in 5% trichloroacetic acid (TCA) and centrifugated for 20 min at 4 000 ×g. […] The absorbance was determined at 412 nm and the results expressed as nmol/g wet tissue.

In data set [6] the test system is Male Wistar rats. Nature of the data set: Phase I of biotransformation: cytochrome P450, EMND and AH in rat liver microsomes after in vivo treatment. How it is done: The animals were divided into six groups (n = 6). […] The animals in all groups were sacrificed on the eighth day of the beginning of the experiment. Livers were taken for assessment of biochemical parameters. For all following experiments the excised livers were washed out with cold saline solution (0.9% NaCl), blotted dray, weighed, and homogenized with appropriate buffers. The excised, perfused, and minced livers were homogenized with 3 mL of 1.17% KCl than centrifugated at 10 000 ×g for 30 min. The supernatant fractions were further centrifugated at 105 000 ×g for 60 min. The resulting microsomal pellets were stored at −20°C until assayed. At the day of assay the microsomal pellets were resuspended and diluted with phosphate buffer EDTA (pH = 7.4). Liver protein concentration was measured, using the method of Lowry and was adjusted to 4 mg/mL. (1) Assessment of Cytochrome P450 Quantity. Cytochrome P450 was quantified spectrophotometrically as a complex with CO at 450 nm and expressed as nmol/mg^−1 protein [28]. […] The method used 4-hydroxylation of aniline to 4-aminophenol that is chemically converted to a phenol-indophenol complex with an absorption maximum at 630 nm. Enzyme activity was expressed as nmol/min/mg. […] The enzyme activity was evaluated by the formation of formaldehyde, trapped in the solution as semicarbazone, and measured by the colorimetric procedure of Nash, at 415 nm. Enzyme activity was expressed as nmol/min/mg.

Where [7] appears, read: saponarin 80 mg/kg bw/day p.o. 7 days, alone.
Where [8] appears, read: saponarin 80 mg/kg p.o. 7 days pretreatment then paracetamol 600 mg/kg i.p.
Setting [9] is: saponarin pretreatment seven days then single i.p. paracetamol, compared to paracetamol alone.
[10] abbreviates: rat liver microsomes, saponarin 80 mg/kg bw/day p.o. 7 days, alone.
Setting [11] is: saponarin alone 80 mg/kg p.o. 7 days, vs control.
Setting [12] is: paracetamol 600 mg/kg i.p. alone.
Where [13] appears, read: paracetamol 600 mg/kg i.p. alone, compared to control animals.

Where “and” joins values, the source holds several entries; their conditions need not be identical. Identical values can stand only once. Entries after “also recorded” stand apart in the source; their conditions may differ.

Experimental for isolated rat hepatocytes: The effect of saponarin was compared to those of silymarin (50–0.005 μg/mL). The following parameters were measured to assess the functional status of hepatocytes: cell viability, lactate dehydrogenase (LDH) activity, reduced glutathione (GSH) levels, and malondialdehyde (MDA) quantity. Cell viability was assessed by Trypan blue exclusion method [19]. The dye was used at a final concentration of 0.05% and cells were counted under light microscope (×100). At the end of incubation, the cells were recovered via centrifugation at 400 ×g at 4°C. The supernatant was used for LDH and MDA assessment as described by Bergmeyer et al. [21] and Fau at al. [19], respectively. GSH measurement following the method used by Fau at al. [19] was assessed in the sediment.

In turn, “apigenin 6-C-glucosyl-7-O-glucoside [saponarin]” returned an MDA in the data set with Male Wistar rats [1] (setting [7]) of 0.635 ± 0.07 nmol/g protein. Also, in the data set with Male Wistar rats [1] (setting [8]), the “MDA content relative to control level” value is on record as “restored to the control level”. In the data set with Male Wistar rats [1] (saponarin 80 mg/kg p.o. 7 days pretreatment then paracetamol 600 mg/kg i.p., compared to PC-treated group), the “reduction of MDA in rat liver homogenate” value was determined as 18%. Further, the “protection against paracetamol-induced injury (cell viability, LDH activity, MDA quantity, GSH levels)” value with isolated rat hepatocytes was “prevented the liver injury”. In data set [2], the “inhibition of DPPH radical” value is given as 88.8%. In addition, in the data set with Male Wistar rats [3] (setting [7]), the CAT worked out at 110.4 ± 16 μmol H2O2/min/mg protein, the GPx amounted to 0.125 ± 0.02 nmol/min/mg protein, the GR turned out to be 0.207 ± 0.03 nmol/min/mg protein and the GST is 0.208 ± 0.02 nmol CDNB-GSH conjugate formed/min/mg protein. Also, the SOD in the data set with Male Wistar rats [3] (setting [7]) worked out at 0.158 ± 0.015 nmol/min/mg protein. In the data set with Male Wistar rats [3] (setting [9]), the “increase in GPx activity” value was found to be 21%, the “increase in GR activity” value is listed as 39%, the “increase in GST activity” value amounted to 21% and the “increase in SOD activity” value is 24%. In the data set with Male Wistar rats [4] (rats pretreated with saponarin (80 mg/kg p.o. 7 days) then challenged with paracetamol 600 mg/kg i.p.), the liver histopathology entry was “lower intensity of mononuclear accumulations and the presence of single cells showing intracellular oedema; also recorded: significant improvement of hepatocellular architecture”. This compound also registered a GSH in the data set on Male Wistar rats [5] (setting [7]) of 5.14 ± 0.31 nmol/g protein. Also, the “GSH levels compared to the paracetamol-only group” value in the data set with Male Wistar rats [5] (setting [8]) was “significantly higher levels of GSH”. In addition, in the data set with Male Wistar rats [6] (setting [10]), the AH activity worked out at 0.047 ± 0.004 nmol/mg protein, the “Cytochrome P450” value worked out at 0.244 ± 0.05 nmol/mg protein and the EMND activity is 0.371 ± 0.011 nmol/mg protein. For the same compound, in the data set with Male Wistar rats [6] (setting [11]), the “decrease in AH activity” value came out at 37%, the “decrease in EMND activity” value came out at 24% and the “decrease in total P450 quantity” value was determined as 25%.
For `CC(=O)Nc1ccc(O)cc1` [paracetamol], the “increase of MDA level in rat liver homogenate” value in the data set on Male Wistar rats [1] (paracetamol 600 mg/kg i.p. alone, vs control animals) came to 30%. In the data set on Male Wistar rats [1] (setting [12]), this compound showed an MDA of 0.854 ± 0.04 nmol/g protein. Moreover, in the data set on Male Wistar rats [3] (setting [13]), the “decrease in CAT activity” value turned out to be 27%; the “decrease in GPx activity” value is 31-32%; the “decrease in GR activity” value is on record as 38%; the “decrease in GST activity” value is 31% and 31-32%. Besides, in the data set with Male Wistar rats [3] (setting [12]), the CAT is listed as 88.3 ± 10 μmol H2O2/min/mg protein, the GPx is recorded as 0.089 ± 0.01 nmol/min/mg protein, the GR worked out at 0.137 ± 0.02 nmol/min/mg protein and the GST is listed as 0.160 ± 0.01 nmol CDNB-GSH conjugate formed/min/mg protein. Also, in the data set on Male Wistar rats [3] (setting [12]), the SOD amounted to 0.114 ± 0.012 nmol/min/mg protein. In the data set with Male Wistar rats [4] (paracetamol 600 mg/kg i.p. alone, hematoxylin/eosin, light microscopy), the liver histopathology entry is “treatment-related changes associated with hepatotoxicity; also recorded: centriacinar and microvesicular accumulation of fats”. Further, the “reduction in GSH levels in rat liver homogenate” value in the data set on Male Wistar rats [5] (setting [13]) is recorded as 83%. Moreover, the GSH in the data set on Male Wistar rats [5] (setting [12]) came out at 0.96 ± 0.05 nmol/g protein.
